Measurements as given in patent EP2118137B1, “PEPTIDES AND POLYPEPTIDES WITH IMPROVED STABILITY USEFUL IN THE REGENERATION OF THE NERVOUS SYSTEM” (Neuronax, priority 2006, dated 2011).
“Also recorded” adds a separate entry of the source. Square brackets hold non-standard residues; d marks the D form. Peptide text beside a SMILES is read from it. 2Nal = N[C@@H](Cc1ccc2ccccc2c1)C(=O)O; Lys(iPr) = CC(C)NCCCC[C@H](N)C(=O)O; Abu = CC[C@H](N)C(=O)O

Tests used:
[1] = Stability of peptides in aqueous solution (HPLC purity on storage); assay type: physicochemical; settings: 22°C, 50% relative humidity, HPLC after 0, 3, 7, 11 and 22 days
Procedure: Les peptides synthétiques ont été mis en solution aqueuse (1,5 mg de peptide dissout dans 1000 µL d'eau stérile).
Leur pureté a été testée par HPLC, elle était d'au moins 97,0%.
Ces solutions ont ensuite été diluées : à 0,4 mL de chacune de ces solutions, on a ajouté 1,1 mL d'eau purifiée.
Ces solutions ont été placées en étuve à 22°C et 50% d'humidité relative, et analysées après : 0, 3, 7, 11 et 22 jours.
L'analyse a été faite par HPLC en gradient de phase inverse à une concentration de 0,4 mg/mL, avec les paramètres suivants : - cartouche Symétrie RP18 (Waters) 125 x 4,6 mm - phases mobiles A : H2O + TFA 0.1 % (w/v) B : Acétonitrile + TFA 0.1 % (v/v) - détection : 210 nm - débit : 1 ml/min - volume d'injection : 20 µl de solution (soit 8 µg de peptide) - gradient : […]
Les échantillons ont été placés en étuve à 22 °C, 50 % d'humidité relative et analysés à : 0 jours, 3 jours, 7 jours, 11 jours et 22 jours.
Les résultats sont présentés dans le Tableau 1 et sur la Figuré 1.
Le paramètre « TR » exprime le temps de rétention du peptide en minutes dans la colonne de HPLC.
Le paramètre « Pureté » exprimé la pureté du peptide en % tel que déterminé par HPLC.
La colonne « Impuretés : TR est % » indique pour le pic supplémentaire le plus intense, le temps de rétention en minutes et le pourcentage en masse. La colonne SEQ indique le numéro de la séquence (SEQ ID N° X).

[2] = tested on: souris avec lésion ischémique partielle; assay: Mouse partial ischemic spinal cord lesion, functional evaluation of walking; assay type: in vivo; settings: partial ischemic lesion causing paralysis
Text: Une première caractérisation in vivo des phénomènes de repousse neuritique et de survie neuronale a été effectuée sur deux modèles d'animaux différents dans le cas du trauma de la moelle épinière (réparation de la moelle épinière après rupture).

[3] = tested on: cellules B104; settings: cited from earlier work
[4] = tested on: cellules nerveuses; settings: added daily to the culture medium at its optimal dose; cited from earlier work
[5] = tested on: cellules de la lignée B104; assay: Morphological differentiation and neurite outgrowth of B104 cells; assay type: cell-based, rat
Text: L'activité biologique des différents peptides a été analysée par ajout de chacun des peptides dans des cultures de cellules nerveuses et suivi des modifications morphologiques de ces cellules.
Des cellules de la lignée B104, issues de neuroblastome de rat, sont cultivées à raison de 1000 cellules par puits dans des plaques de 48 puits préalablement recouverts de poly-lysine (fourni par Sigma-Aldrich), dans du milieu de Eagle modifié par Dubelco (DMEM), supplémenté de glutamine et d'antibiotique, et additionné de 10% de sérum de veau foetal pendant la phase d'adhésion. Le milieu est ensuite remplacé par un nouveau milieu DMEM ne contenant pas de sérum et permettant la différenciation des cellules. Après traitement, c'est-à-dire après ajout du composé à tester, les cellules sont maintenues en culture à 37°C sous une atmosphère à 10% de CO2. L'évolution de la morphologie cellulaire et la prolifération sont suivies par examen microscopique en contraste de phase chaque jour sur la période de culture. La différenciation cellulaire, et en particulier l'effet sur la pousse neuritique, est alors mesurée.

Molecule: N=C(N)NCCC[C@H](NC(=O)[C@H](CO)NC(=O)[C@H](CS)NC(=O)[C@H](CO)NC(=O)[C@H](CO)NC(=O)[C@H](Cc1c[nH]c2ccccc12)NC(=O)CNC(=O)[C@H](CO)NC(=O)[C@@H](N)Cc1ccc2ccccc2c1)C(=O)N[C@@H](CO)C(=O)O [SEQ ID N°8, L-Nal2-S-G-W-S-S-C-S-R-S] (H-[2Nal]SGWSSCSRS-OH)
- stabilité en solution aqueuse [1]: stabilité en solution améliorée

Molecule: CC[C@H](NC(=O)[C@H](CO)NC(=O)[C@H](CO)NC(=O)[C@H](Cc1c[nH]c2ccccc12)NC(=O)CNC(=O)[C@H](CO)NC(=O)[C@@H](N)Cc1c[nH]c2ccccc12)C(=O)N[C@@H](CO)C(=O)N[C@@H](CCCNC(=N)N)C(=O)N[C@@H](CO)C(=O)O [SEQ ID N°4, W-S-G-W-S-S-Abu-S-R-S] (H-WSGWSS[Abu]SRS-OH)
- stabilité en solution aqueuse [1]: stabilité en solution améliorée

Molecule: W-S-G-W-S-S-C-S-R-S-C-G (WSGWSSCSRSCG) [SEQ ID N°1, séquence la plus représentative d'un motif TSR de la SCO-spondine]
- activité régénératrice (évaluation fonctionnelle au niveau de la marche) [2]: activité régénératrice
- pousses neuritiques ([3]; after three days of culture, without serum): pousses neuritiques importantes
- différenciation cellulaire [3]: induit la pousse neuritique et l'agrégation cellulaire
- nombre de neurites [3]: induit une augmentation
- taille du neurite le plus long [3]: induit une augmentation
- regroupements cellulaires (agrégation) ([3]; from 3 or 4 days of culture): apparition de regroupements de ces cellules B 104 différenciées
- effet sur la pousse neuritique (dose) ([3]; increasing range of peptide concentrations): dépendant de la dose de peptide utilisée
- effet du peptide avec ajout quotidien [4]: l'effet observé était accentué
- réponse des cellules B 104 (effet dose-réponse) [5]: proportionnelle à la concentration de peptide
- étalement du corps cellulaire ([5]; 24 hours after adding the peptides): cet effet est présent
- incidence du remplacement de l'extrémité carboxyterminale par une extrémité aminée sur l'effet du peptide ([5]; B104 cells): aucune incidence
- nombre de neurites par cellule ([5]; after 3 days of culture): effet inducteur de la pousse neuritique
- pousses neuritiques ([5]; after 3 days of culture): pousses neuritiques importantes
- stabilité en solution aqueuse [1]: se dégrade plus vite; also recorded: diminue en solution aqueuse avec le temps

Molecule: CC(C)NCCCC[C@H](NC(=O)[C@H](CO)NC(=O)[C@H](CS)NC(=O)[C@H](CO)NC(=O)[C@H](CO)NC(=O)[C@H](Cc1c[nH]c2ccccc12)NC(=O)CNC(=O)[C@H](CO)NC(=O)[C@@H](N)Cc1c[nH]c2ccccc12)C(=O)N[C@@H](CO)C(=O)O [SEQ ID N°6, W-S-G-W-S-S-C-S-K-(iPr)-S] (H-WSGWSSCS[Lys(iPr)]S-OH)
- stabilité en solution aqueuse [1]: stabilité en solution améliorée

Molecule: CC[C@H](NC(=O)[C@@H](N)Cc1c[nH]c2ccccc12)C(=O)NCC(=O)N[C@@H](Cc1c[nH]c2ccccc12)C(=O)N[C@@H](CO)C(=O)N[C@@H](CO)C(=O)N[C@@H](CS)C(=O)N[C@@H](CO)C(=O)N[C@@H](CCCNC(=N)N)C(=O)N[C@@H](CO)C(=O)O [SEQ ID N°7, W-Abu-G-W-S-S-C-S-R-S] (H-W[Abu]GWSSCSRS-OH)
- stabilité en solution aqueuse [1]: stabilité en solution améliorée

Molecule: CC[C@H](NC(=O)[C@H](CCCNC(=N)N)NC(=O)[C@H](CO)NC(=O)[C@H](CS)NC(=O)[C@H](CO)NC(=O)[C@H](CO)NC(=O)[C@H](Cc1c[nH]c2ccccc12)NC(=O)CNC(=O)[C@H](CO)NC(=O)[C@@H](N)Cc1c[nH]c2ccccc12)C(=O)O [SEQ ID N°5, W-S-G-W-S-S-C-S-R-Abu] (H-WSGWSSCSR[Abu]-OH)
- stabilité en solution aqueuse [1]: stabilité en solution améliorée

Molecule: CC[C@H](NC(=O)[C@H](CO)NC(=O)[C@H](CO)NC(=O)[C@H](Cc1c[nH]c2ccccc12)NC(=O)CNC(=O)[C@H](CO)NC(=O)[C@@H](N)Cc1c[nH]c2ccccc12)C(=O)N[C@@H](CO)C(=O)N[C@@H](CCCNC(=N)N)C(=O)N[C@@H](CO)C(N)=O [NH2-W-S-G-W-S-S-Abu-S-R-S-NH2] (H-WSGWSS[Abu]SRS-NH2)
- induction de la pousse neuritique ([5]; B104 cells): s'est montré actif
